Experimental data reported in patent US7923448B2, “Purine receptor inhibition as a therapeutic strategy in spinal cord and brain” (priority 2003, dated 2011).
Entries after “also recorded” stand apart in the source; their conditions may differ. One block for each molecule: values may come before it.

How the values were obtained:
non-injured spinal cord = experiment: Injection of ATP or ATP analogs into the non-injured spinal cord, TUNEL staining; type: in vivo, rat; conditions: 10 mM, 2 μl injected just lateral to the dorsal horn, 24 hrs later
Protocol: (§1) Adult female Spague-Dawley rats (220-250 g) were anesthetized with pentobarbital (50 mg/kg i.p.). When unresponsive, a double level laminectomy was performed at the T11 and T12 vertebrae. […] The tip of the rod was reduced to 1 mm to avoid direct traumatic injury of the dorsal venous complex. ATP and agonists (10 mM, 2 μl) were stereotaxically injected into T12 just lateral to the dorsal horn. All agents were purchased from Sigma.
The rats were anesthetized with ketamine (60 mg/kg) and xylazine (10 mg/kg). After 12 hours post-fixation, the spinal cord is cryoprotected in 30% sucrose and cut in serial 20 μm para-saggital sections. Myelin was visualized with Luxol fast blue (Basso et al., “A Sensitive and Reliable Locomotor Rating Scale for Open Field Testing in Rats,” J Neurotrauma 12:1-21 (1995) and Nedergaard et al., “Characterization of Cortical Depolarization Evoked in Focal Cerebral Ischemia,” J Cereb Blood Flow Metab 13:568-574 (1993), which are hereby incorporated by reference in their entirety)). Immunohistochemistry and TUNEL staining were performed as described in (Lin et al., “Gap-Junction-Mediated Propagation and Amplification of Cell Injury,” Nat Neurosci 1:494-500 (1998); Lin et al., “Connexin Mediates Gap Junction-Independent Resistance to Cellular Injury,” J Neurosci 23:430-441 (2003); and Takano et al., “Glutamate Release Promotes Growth of Malignant Glioma,” Nat Med 7:1010-1015 (2001), which are hereby incorporated by reference in their entirety)). Immunofluorescence was visualized using confocal microscopy (BioRad MRC1024) and images analyzed by Metamorph software (Universal Imaging Corp.).
It was then determined whether increased extracellular ATP in itself, in the non-injured spinal cord, was sufficient for induction of cell death. ATP or ATP analogs, all in a concentration of 10 mM (2 μl), were injected into the spinal cord just lateral to the dorsal horn. A large number of TUNEL-positive cells were present 24 hrs later in both gray and white matter (FIG. 2F). […] These observations indicate that raising extracellular ATP concentration is sufficient for induction of cell death in the non-injured spinal cord. In this regard, P2X7 receptors are expressed by most immune cells and their activation leads to multiple downstream events, including cell permeabilization and apoptosis (Chow et al., “Purines and Their Roles in Apoptosis,” Neuropharmacology 36:1149-1156 (1997) and Di Virgilio et al., “Cytolytic P2X Purinoceptors,” Cell Death Differ 5:191-199 (1998), which are hereby incorporated by reference in their entirety)).

spinal cord injury [1] = experiment: Weight-drop spinal cord injury, TUNEL-positive cells surrounding the lesion; type: in vivo, rat; conditions: 1 mM, 2 μl injected locally into the peri-traumatic zone immediately prior to impact; 24 hrs
Protocol: as §1
The rats were anesthetized with ketamine (60 mg/kg) and xylazine (10 mg/kg). After 12 hours post-fixation, the spinal cord is cryoprotected in 30% sucrose and cut in serial 20 μm para-saggital sections. Myelin was visualized with Luxol fast blue (Basso et al., “A Sensitive and Reliable Locomotor Rating Scale for Open Field Testing in Rats,” J Neurotrauma 12:1-21 (1995) and Nedergaard et al., “Characterization of Cortical Depolarization Evoked in Focal Cerebral Ischemia,” J Cereb Blood Flow Metab 13:568-574 (1993), which are hereby incorporated by reference in their entirety)). […] Immunofluorescence was visualized using confocal microscopy (BioRad MRC1024) and images analyzed by Metamorph software (Universal Imaging Corp.).
It was next determined whether OxATP protected against cell death in the area of high ATP release following spinal cord injury. […]

spinal cord injury [2] = experiment: Weight-drop spinal cord injury, BBB open field locomotor rating scale; type: in vivo, rat; conditions: 1 mM, 2 μl local pretreatment; n=14
Protocol: as §1
The animals were evaluated daily for 2 weeks after injury and later on a biweekly basis.
It was next determined whether OxATP protected against cell death in the area of high ATP release following spinal cord injury. OxATP (1 mM, 2 μl) was injected locally into the peri-traumatic zone immediately prior to impact. […] The BBB open field locomotor rating scale was used to evaluate recovery of rats receiving OxATP versus vehicle treated control.

P2X7 receptors [3] = biological target: T1, P2X7 receptors (Rattus norvegicus, UniProt Q64663); experiment: Current clamp recording of spiking in spinal cord neurons (slices); conditions: for effect on BzATP-induced increase in spike rate (FIG. 4 legend): BzATP 100 μM, OxATP 100 μM, NBQX 10 μM and CPP 5 μM applied combined; for spiking (action potential firing) of spinal cord neurons: 100 μM, current clamp
T1 sequence (Q64663 1-595): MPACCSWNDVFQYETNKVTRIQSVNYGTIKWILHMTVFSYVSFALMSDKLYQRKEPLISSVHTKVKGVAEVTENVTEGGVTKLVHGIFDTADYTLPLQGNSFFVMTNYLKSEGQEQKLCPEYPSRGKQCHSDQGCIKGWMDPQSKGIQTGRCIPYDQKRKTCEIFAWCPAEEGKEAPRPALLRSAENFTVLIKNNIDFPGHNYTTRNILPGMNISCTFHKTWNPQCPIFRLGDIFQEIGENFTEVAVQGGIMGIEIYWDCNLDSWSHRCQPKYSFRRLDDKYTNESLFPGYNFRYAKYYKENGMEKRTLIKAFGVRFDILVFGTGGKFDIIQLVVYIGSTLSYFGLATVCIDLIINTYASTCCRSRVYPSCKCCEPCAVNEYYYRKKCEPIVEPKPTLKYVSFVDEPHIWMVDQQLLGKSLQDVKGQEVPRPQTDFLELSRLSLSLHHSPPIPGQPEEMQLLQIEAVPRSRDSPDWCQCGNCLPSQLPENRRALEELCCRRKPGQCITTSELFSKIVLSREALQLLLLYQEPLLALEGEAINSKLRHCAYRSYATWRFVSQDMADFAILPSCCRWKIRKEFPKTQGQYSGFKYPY

P2X7 receptors [4] = biological target: T1, P2X7 receptors; experiment: Two-photon calcium imaging (fluo-4) of neurons in spinal cord slices; conditions: 100 μM; for cytosolic calcium concentration (fluo-4 emission) during bath application: 20 min agonist exposure, spinal cord slices

Molecule: CSc1nc(N)c2ncn([C@@H]3O[C@H](COP(=O)(O)OP(=O)(O)OP(=O)(O)O)[C@@H](O)[C@H]3O)c2n1 [2MeSATP]
apoptosis (TUNEL-positive cells) after injection into spinal cord (non-injured spinal cord): not associated with significant injury

Molecule: Nc1ncnc2c1ncn2[C@@H](C=O)O[C@@H](C=O)COP(=O)(O)OP(=O)(O)OP(=O)(O)O [OxATP, oxidized ATP]
number of TUNEL positive cells surrounding the lesion versus vehicle controls (spinal cord injury [1]): highly significant reduction | BBB score difference versus vehicle, first week of recovery (spinal cord injury [2]): 2-4 points | functional recovery (BBB) versus vehicle-treated controls (spinal cord injury [2]): significant improved recovery | effect on BzATP-induced increase in spike rate (FIG. 4 legend) (P2X7 receptors [3]): prevented BzATP-induced increase in spike rate | effect on agonist-increased spiking activity (P2X7 receptors [3]; pretreatment, OxATP 300 μM, ATP or BzATP 100 μM): attenuated

Molecule: Nc1ncnc2c1ncn2[C@@H]1O[C@H](COP(=O)(O)CP(=O)(O)OP(=O)(O)O)[C@@H](O)[C@H]1O [αβATP]
apoptosis (TUNEL-positive cells) after injection into spinal cord (non-injured spinal cord): not associated with significant injury

effect on BzATP-induced increase in spike rate (FIG. 4 legend) (P2X7 receptors [3]): no significant effect
Molecule: NBQX

Molecule: O=C(O)C1CN(CCCP(=O)(O)O)CCN1 (stereo not shown) [CPP]
effect on BzATP-induced increase in spike rate (FIG. 4 legend) (P2X7 receptors [3]): no significant effect

spiking rate versus BzATP dose (P2X7 receptors [3]; n=5-9): increases in a dose-dependent manner | Kd (P2X7 receptors [3]; read-out: kd (affinity, spiking response), spinal cord neurons): 23.8 µM | calcium elevation after washout (P2X7 receptors [4]; 20 min exposure followed by 20 min washout): failed to recover after washout
Molecule: BzATP
apoptosis (TUNEL-positive cells) after injection into spinal cord (non-injured spinal cord): induced apoptosis with a potency equivalent to ATP | spiking (action potential firing) of spinal cord neurons (P2X7 receptors [3]): increase spiking rate; also recorded: induced high frequency spiking | cytosolic calcium concentration (fluo-4 emission) during bath application (P2X7 receptors [4]): sustained increase in cytosolic calcium concentration

Molecule: Nc1ncnc2c1ncn2[C@@H]1O[C@H](COP(=O)(O)OP(=O)(O)OP(=O)(O)O)[C@@H](O)[C@H]1O [ATP]
apoptosis (TUNEL-positive cells) after injection into spinal cord (non-injured spinal cord): induced a significant extent of apoptosis | spiking (action potential firing) of spinal cord neurons (P2X7 receptors [3]): increase spiking rate; also recorded: induced high frequency spiking | cytosolic calcium concentration (fluo-4 emission) during bath application (P2X7 receptors [4]): sustained increase in cytosolic calcium concentration

Molecule: Nc1ncnc2c1ncn2[C@@H]1O[C@H](COP(=O)(O)OP(=O)(O)OP(O)(O)=S)[C@@H](O)[C@H]1O [ATPγS]
apoptosis (TUNEL-positive cells) after injection into spinal cord (non-injured spinal cord): highest extent of apoptosis
